Source: US8012956B2, “Tropane compounds” (Exelixis, Inc., priority 2007, dated 2011)

Biological target: HSP90 (Homo sapiens, UniProt P07900)
Assay: HSP90 inhibition (HSP90 IC50)
Format: biochemical

Molecule	IC50 [nM]
CCCCNc1cc(C(=O)N[C@H]2C[C@H]3CC[C@@H](C2)N3c2ccc(C(=O)C3CC3)cn2)ccc1C(N)=O [2-(butylamino)-N4-{8-[5-(cyclopropylcarbonyl)pyridin-2-yl]-8-azabicyclo[3.2.1]oct-3-endo-yl}benzene-1,4-dicarboxamide]	< 500
CCC(CC)Nc1cc(C(=O)NC2CC3CCC(C2)N3c2ccc(C(=O)N[C@@H]3CCN(C(C)C)C3)cn2)c(C)cc1C(N)=O (stereo partly drawn) [5-[(1-ethylpropyl)amino]-2-methyl-N-{8-[5-({[(3R)-1-(1-methylethyl)pyrrolidin-3-yl]amino}carbonyl)pyridin-2-yl]-8-azabicyclo[3.2.1]oct-3-endo-yl}benzene-1,4-dicarboxamide]	< 500
NC(=O)c1ccc(C(=O)N[C@H]2C[C@H]3CC[C@@H](C2)N3c2ccc(C(=O)CCN3CCOCC3)cn2)cc1NCC1CC1 [2-[(cyclopropylmethyl)amino]-N4-{8-[5-(3-morpholin-4-ylpropanoyl)pyridin-2-yl]-8-azabicyclo[3.2.1]oct-3-endo-yl}benzene-1,4-dicarboxamide]	< 500
COCCCNC(=O)c1ccc(N2[C@@H]3CC[C@H]2C[C@@H](NC(=O)c2cccc(OC)c2C)C3)nc1 [6-[3-endo-({[2-methyl-3-(methyloxy)phenyl]carbonyl}amino)-8-azabicyclo[3.2.1]oct-8-yl]-N-[3-(methyloxy)propyl]pyridine-3-carboxamide]	500 to 999
CC(=O)c1ccc(N2[C@@H]3CC[C@H]2C[C@@H](NC(=O)c2ccc(C(N)=O)c(NCC4CCCNC4)c2)C3)nc1 (stereo partly drawn) [N4-(8-(5-acetylpyridin-2-yl)-8-azabicyclo[3.2.1]oct-3-endo-yl]-2-[(piperidin-3-ylmethyl)amino]benzene-1,4-dicarboxamide]	< 500
CCC(C)Nc1cc(C(=O)N[C@H]2C[C@H]3CC[C@@H](C2)N3c2ccc(C(C)=O)cn2)ccc1C(N)=O (stereo partly drawn) [N4-[8-(5-acetylpyridin-2-yl)-8-azabicyclo[3.2.1]oct-3-endo-yl]-2-((1-methylpropyl)amino]benzene-1,4-dicarboxamide]	< 500
CCCNc1cc(C(=O)N[C@H]2C[C@H]3CC[C@@H](C2)N3c2ccc(C(=O)C3CC3)cn2)c(Br)cc1C(N)=O [2-bromo-N-{8-[5-(cyclopropylcarbonyl)pyridin-2-yl]-8-azabicyclo[3.2.1]oct-3-endo-yl}-5-(propylamino)benzene-1,4-dicarboxamide]	< 500
Cc1cc(C(=O)N[C@H]2C[C@H]3CC[C@@H](C2)N3c2ccc(C(=O)N[C@H]3CCN(C(C)C)C3)cn2)c(C)cc1C(N)=O [2,5-dimethyl-N-{8-[5-({[(3S)-1-(1-methylethyl)pyrrolidin-3-yl]amino}carbonyl)pyridin-2-yl]-8-azabicyclo[3.2.1]oct-3-endo-yl}benzene-1,4-dicarboxamide]	< 500
CS(=O)(=O)CCNc1cc(C(=O)N[C@H]2C[C@H]3CC[C@@H](C2)N3c2ccc(C(=O)NC3CCCC3)cn2)ccc1C(N)=O [N4-(8-{5-[(cyclopentylamino)carbonyl]pyridin-2-yl}-8-azabicyclo[3.2.1]oct-3-endo-yl)-2-{[2-(methylsulfonyl)ethyl]amino}benzene-1,4-dicarboxamide]	< 500
Cc1c(O)cccc1C(=O)NC1CC2CCC(C1)N2c1ccc(C(=O)N[C@@H](C)c2ccc(N3CCN(C)CC3)cc2)cn1 (stereo partly drawn) [6-(3-endo-{[(3-hydroxy-2-methylphenyl)carbonyl]amino}-8-azabicyclo[3.2.1]oct-8-yl)-N-{(1S)-1-[4-(4-methylpiperazin-1-yl)phenyl]ethyl}pyridine-3-carboxamide]	< 500
CCC(CC)Nc1cc(C(=O)NC2CC3CCC(C2)N3c2ccc(C(=O)N[C@H]3CCN(C(C)C)C3)cn2)ccc1C(N)=O (stereo partly drawn) [2-[(1-ethylpropyl)amino]-N4-{8-[5-({[(3S)-1-(1-methylethyl)pyrrolidin-3-yl]amino}carbonyl)pyridin-2-yl]-8-azabicyclo[3.2.1]oct-3-endo-yl}benzene-1,4-dicarboxamide]	< 500
N4-[8-(5-butanoylpyridin-2-yl)-8- azabicyclo[3.2.1]oct-3-endo-yl]-2- [(cyclopropylmethyl)amino]benzene- 1,4-dicarboxamide	500 to 999
COc1cccc(C(=O)NC2CC3CCC(C2)N3c2ccc(C(=O)NC(C)c3ccccc3)cn2)c1C (stereo not shown)	< 500

Other lines, results leading:

IC50 [nM]	Molecule
1000 to 2000	COc1cccc(C(=O)N[C@H]2C[C@H]3CC[C@@H](C2)N3c2ccc(C(=O)NCCC(C)C)cn2)c1C [N-(3-methylbutyl)-6-[3-endo-({[2-methyl-3-(methyloxy)phenyl]carbonyl}amino)-8-azabicyclo[3.2.1]oct-8-yl]pyridine-3-carboxamide]
< 500	NC(=O)c1ccc(C(=O)N[C@H]2C[C@H]3CC[C@@H](C2)N3c2ccc(C(=O)NCc3cccnc3)cn2)cc1 [N-[8-(5-{[(pyridin-3-ylmethyl)amino]carbonyl}pyridin-2-yl)-8-azabicyclo[3.2.1]oct-3-endo-yl]benzene-1,4-dicarboxamide]
1000 to 2000	COc1cccc(C(=O)NC2CC3CCC(C2)N3c2ccc(C(=O)N[C@@H](C)CO)cn2)c1C (stereo partly drawn) [N-[(1S)-2-hydroxy-1-methylethyl]-6-[3-endo-({[2-methyl-3-(methyloxy)phenyl]carbonyl}amino)-8-azabicyclo[3.2.1]oct-8-yl]pyridine-3-carboxamide]
2000 to 10000	COc1cccc(C(=O)NC2CC3CCC(C2)N3c2ccc(C(=O)NCC3COC(C)(C)O3)cn2)c1C (stereo not drawn) [N-[(2,2-dimethyl-1,3-dioxolan-4-yl)methyl]-6-[3-endo-({[2-methyl-3-(methyloxy)phenyl]carbonyl}amino)-8-azabicyclo[3.2.1]oct-8-yl]pyridine-3-carboxamide]
< 500	CCC(CC)Nc1cc(C(=O)N[C@H]2C[C@H]3CC[C@@H](C2)N3c2ccc(C(C)=O)cn2)c(F)cc1C(N)=O [N-[8-(5-acetylpyridin-2-yl)-8-azabicyclo[3.2.1]oct-3-endo-yl]-5-[(1-ethylpropyl)amino]-2-fluorobenzene-1,4-dicarboxamide]
2000 to 10000	COc1cccc(C(=O)N[C@H]2C[C@H]3CC[C@@H](C2)N3c2ccc(C(=O)NCc3cccc(OC)c3OC)cn2)c1C [N-{[2,3-bis(methyloxy)phenyl]methyl}-6-[3-endo-({[2-methyl-3-(methyloxy)phenyl]carbonyl}amino)-8-azabicyclo[3.2.1]oct-8-yl]pyridine-3-carboxamide]
< 500	CS(=O)(=O)CCNc1cc(C(=O)N[C@H]2C[C@H]3CC[C@@H](C2)N3c2ccc(C(N)=O)cn2)ccc1C(N)=O [N4-{8-[5-(aminocarbonyl)pyridin-2-yl]-8-azabicyclo[3.2.1]oct-3-endo-yl}-2-{[2-(methylsulfonyl)ethyl]amino}benzene-1,4-dicarboxamide]
< 500	Cc1cc(C(N)=O)c(NCCC(F)(F)F)cc1C(=O)N[C@H]1C[C@H]2CC[C@@H](C1)N2c1ccc(C(=O)C2CC2)cn1 [N-{8-[5-(cyclopropylcarbonyl)pyridin-2-yl]-8-azabicyclo[3.2.1]oct-3-endo-yl}-2-methyl-5-[(3,3,3-trifluoropropyl)amino]benzene-1,4-dicarboxamide]
< 500	CCN1CC(NC(=O)c2ccc(N3[C@@H]4CC[C@H]3C[C@@H](NC(=O)c3cc(C)c(C(N)=O)cc3C)C4)nc2)C1 [N-[8-(5-{[(1-ethylazetidin-3-yl)amino]carbonyl}pyridin-2-yl)-8-azabicyclo[3.2.1]oct-3-endo-yl]-2,5-dimethylbenzene-1,4-dicarboxamide]
1000 to 2000	NC(=O)c1ccc(C(=O)N[C@H]2C[C@H]3CC[C@@H](C2)N3c2ccc(C(=O)CCC3CCCCC3)cn2)cc1NCC1CC1 [N4-{8-[5-(3-cyclohexylpropanoyl)pyridin-2-yl]-8-azabicyclo[3.2.1]oct-3-endo-yl}-2-[(cyclopropylmethyl)amino]benzene-1,4-dicarboxamide]
2000 to 10000	COc1cccc(C(=O)NC2CC3CCC(C2)N3c2ccc(C(=O)N[C@H](C)C(C)C)cn2)c1C (stereo partly drawn) [N-[(1R)-1,2-dimethylpropyl]-6-[3-endo-({[2-methyl-3-(methyloxy)phenyl]carbonyl}amino)-8-azabicyclo[3.2.1]oct-8-yl]pyridine-3-carboxamide]
< 500	Cc1cc(C(=O)N[C@H]2C[C@H]3CC[C@@H](C2)N3c2ccc(C(N)=O)cn2)c(C)cc1C(N)=O [N-{8-[5-(aminocarbonyl)pyridin-2-yl]-8-azabicyclo[3.2.1]oct-3-endo-yl}-2,5-dimethylbenzene-1,4-dicarboxamide]
500 to 999	COc1cccc(C(=O)N[C@H]2C[C@H]3CC[C@@H](C2)N3c2ccc(C(=O)NCCCN(C)C)cn2)c1C [N-[3-(dimethylamino)propyl]-6-[3-endo-({[2-methyl-3-(methyloxy)phenyl]carbonyl}amino)-8-azabicyclo[3.2.1]oct-8-yl]pyridine-3-carboxamide]
< 500	Cc1cc(C(N)=O)c(CC(C)C)cc1C(=O)N[C@H]1C[C@H]2CC[C@@H](C1)N2c1ccc(C(=O)C2CC2)cn1 [N-{8-(5-(cyclopropylcarbonyl)pyridin-2-yl]-8-azabicyclo[3.2.1]oct-3-endo-yl}-2-methyl-5-(2-methylpropyl)benzene-1,4-dicarboxamide]
< 500	CCCCNc1cc(C(=O)N[C@H]2C[C@H]3CC[C@@H](C2)N3c2ccc(C(C)=O)cn2)ccc1C(N)=O [N4-[8-(5-acetylpyridin-2-yl)-8-azabicyclo[3.2.1]oct-3-endo-yl]-2-(butylamino)benzene-1,4-dicarboxamide]
< 500	Cc1cc(C(N)=O)c(NCC2CC2)cc1C(=O)N[C@H]1C[C@H]2CC[C@@H](C1)N2c1ccc(C(=O)C2CC2)cn1 [N-{8-[5-(cyclopropylcarbonyl)pyridin-2-yl]-8-azabicyclo[3.2.1]oct-3-endo-yl)-5-[(cyclopropylmethyl)amino]-2-methylbenzene-1,4-dicarboxamide]
< 500	CC[C@H](C)Nc1cc(C(=O)NC2CC3CCC(C2)N3c2ccc(C(=O)C3CC3)cn2)c(C)cc1C(N)=O (stereo partly drawn) [N-{8-[5-(cyclopropylcarbonyl)pyridine-2-yl]-8-azabicyclo[3.2.1]oct-3-endo-yl}-2-methyl-5-{[(1S)-1-methylpropyl]amino}benzene-1,4-dicarboxamide]
1000 to 2000	COc1cc(CNC(=O)c2ccc(N3[C@@H]4CC[C@H]3C[C@@H](NC(=O)c3cccc(OC)c3C)C4)nc2)cc(OC)c1 [N-{[3,5-bis(methyloxy)phenyl]methyl}-6-[3-endo-({[2-methyl-3-(methyloxy)phenyl]carbonyl}amino)-8-azabicyclo[3.2.1]oct-8-yl]pyridine-3-carboxamide]
